From patent publication US20260083704A1, “LXR MODULATORS WITH BICYCLIC CORE MOIETY FOR TREATING DYSLIPIDEMIAS” (OrsoBio, Inc., priority 2022, published 2026)

Key:
[1] = tested on: LXR target genes (Scd1, Fas, Srebp1) in liver; experiment: Short term HFD mouse model: gene expression in liver tissue; assay type: in vivo; conditions: HFD mice, expression normalized to Tbp; for response vs control in vivo at 20 mg/kg / response vs control in vivo at 10 mg/kg: Mus musculus, 4 h, read-out: Scd1 suppresion compared to vehicle
Experimental: The in vivo transcriptional regulation of several LXR target genes by LXR modulators was assessed in mice.
For this, C57BL/6J were purchased from Elevage Janvier (Rennes, France) at the age of 8 weeks. After an acclimation period of two weeks, animals were prefed on a high fat diet (HFD) (Ssniff Spezialdiäten GmbH, Germany, Surwit EF D12330 mod, Cat. No. E15771-34), with 60 kcal % from fat plus 1% (w/w) extra cholesterol (Sigma-Aldrich, St. Louis, MO) for 5 days. Animals were maintained on this diet during treatment with LXR modulators. The test compounds were formulated in 0.5% hydroxypropylmethylcellulose (HPMC) and administered in three doses (from 1.5 to 20 mg/kg each) by oral gavage according to the following schedule: on day one, animals received treatment in the morning and the evening (ca. 17:00), on day two animals received the final treatment in the morning after a 4 h fast and were sacrificed 4 h thereafter. Animal work was conducted according to the national guidelines for animal care in Germany.
Analysis of gene expression in liver tissue. To obtain total RNA from frozen liver tissue, samples (25 mg liver tissue) were first homogenized with RLA buffer (4M guanidin thiocyanate, 10 mM Tris, 0.97% w:v β-mercapto-ethanol). RNA was prepared using a SV 96 total RNA Isolation system (Promega, Madison, Wisconsin, USA) following the manufacturer's instructions. cDNAs were synthesized from 0.8-1 μg of total RNA using All-in-One cDNA Supermix reverse transcriptase (Absource Diagnostics, Munich, Germany). Quantitative PCR was performed and analyzed using Prime time Gene expression master mix (Integrated DNA Technologies, Coralville, Iowa, USA) and a 384-format ABI 7900HT Sequence Detection System (Applied Biosystems, Foster City, USA). The expression of the following genes was analysed: Stearoyl-CoA desaturase1 (Scd1), fatty acid synthase (Fas) and sterol regulatory element-binding protein1 (Srebp1). Specific primer and probe sequences (commercially available) are listed in Table 3. qPCR was conducted at 95° C. for 3 min, followed by 40 cycles of 95° C. for 15 s and 60° C. for 30 s. All samples were run in duplicates from the same RT-reaction. Gene expression was expressed in arbitrary units and normalized relative to the mRNA of the housekeeping gene TATA box binding protein (Tbp) using the comparative Ct method.

LXRβ = molecular target: T1, LXRβ (Homo sapiens, UniProt P55055); experiment: LXR Gal4 reporter transient transfection assay (mammalian two-hybrid, HEK293), LXRβ; assay type: cell-based; parameters: LXRβ (amino acids 156-461); expressed in transfected cells; host or cells: HEK293; conditions: full length (FL) LXRβ, HEK293; read-out: FL-M2H Gal4β
T1 sequence (P55055 1-460): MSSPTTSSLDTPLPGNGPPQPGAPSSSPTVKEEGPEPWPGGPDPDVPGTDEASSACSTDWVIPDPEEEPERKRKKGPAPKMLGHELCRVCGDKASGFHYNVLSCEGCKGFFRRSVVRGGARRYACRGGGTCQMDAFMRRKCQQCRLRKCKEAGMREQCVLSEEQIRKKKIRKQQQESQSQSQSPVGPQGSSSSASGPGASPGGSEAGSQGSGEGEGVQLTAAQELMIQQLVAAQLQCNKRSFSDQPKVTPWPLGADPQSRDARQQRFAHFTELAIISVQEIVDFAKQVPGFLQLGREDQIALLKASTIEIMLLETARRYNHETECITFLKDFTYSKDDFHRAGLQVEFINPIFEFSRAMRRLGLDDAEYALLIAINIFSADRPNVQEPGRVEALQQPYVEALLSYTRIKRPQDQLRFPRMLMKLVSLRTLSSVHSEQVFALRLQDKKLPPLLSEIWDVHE
In short: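 HEK293 cells transiently co-transfected with full-length or LBD LXRα/LXRβ fused to NFkB activation domain, GAL4-DBD-fused SRC1 or NCoR cofactor domain, GAL4-responsive firefly luciferase reporter and Renilla control. Compound added 4 h post-transfection (≤0.2% DMSO), incubated 16 h; firefly and Renilla luminescence read sequentially.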

SMILES	Srebp1c suppr. compared to vehicle ([1]; three oral doses of 20 mg/kg)	response vs control in vivo at 20 mg/kg ([1]; three oral doses of 20 mg/kg) [%]	EC50 (LXRβ) [µM]	Fasn suppression compared to vehicle ([1]; three oral doses of 20 mg/kg)	Fasn suppression compared to vehicle ([1]; three oral doses of 10 mg/kg)	response vs control in vivo at 10 mg/kg ([1]; three oral doses of 10 mg/kg) [%]	Srebp1c suppr. compared to vehicle ([1]; three oral doses of 10 mg/kg)
Cc1ccc(S(=O)(=O)n2c(-c3cccc(-c4ccc(C(=O)O)cc4Cl)c3)c(-c3ccsc3C#N)c3cc(F)ccc32)cc1 [3/48]	D (<0.3)	< 30	< 0.1				
O=C(O)c1ccc(-c2cccc(-c3c(-c4ccccc4C4COC4)c4cc(F)ccc4n3S(=O)(=O)c3ccc(C(F)F)cc3)c2)c(Cl)c1 [3/59]	D (<0.3)	30 to 60	< 0.1				
Cc1ccc(S(=O)(=O)n2c(-c3cccc(C45CCC(C(=O)O)(CC4)CC5)c3)c(-c3ccsc3C#N)c3cc(F)ccc32)cc1 [3/64]	B (0.6 to ≤0.9)	< 30	< 0.1	B (0.6 to ≤0.9)			
N#Cc1cccc(C#N)c1-c1c(-c2cccc(-c3c(F)cc(CC(=O)O)cc3F)c2)n(S(=O)(=O)c2ccc(C(F)F)cc2)c2ccc(F)cc12 [3/73]			< 0.1		A (>0.9)	< 30	
Cc1ccc(S(=O)(=O)n2c(-c3cccc(-c4ccc(C(=O)O)cc4)c3)c(-c3ccsc3C#N)c3cc(F)ccc32)cc1 [5/3]		30 to 60	< 0.1	D (<0.3)			
CC(=O)NS(=O)(=O)c1ccc(-c2cccc(-c3c(-c4c(C#N)cccc4C#N)c4cc(F)ccc4n3S(=O)(=O)c3ccc(C(F)F)cc3)c2)c(Cl)c1 [8/8]			< 0.1			< 30	D (<0.3)
N#Cc1cccc(C#N)c1-c1c(-c2cccc(-c3ccc(C(=O)NCCS(=O)(=O)O)cc3Cl)c2)n(S(=O)(=O)c2ccc(C(F)F)cc2)c2ccc(F)cc12 [10/1]			< 0.1			< 30	D (<0.3)
CN(CCS(=O)(=O)O)C(=O)c1ccc(-c2cccc(-c3c(-c4c(C#N)cccc4C#N)c4cc(F)ccc4n3S(=O)(=O)c3ccc(C(F)F)cc3)c2)c(Cl)c1 [10/2]			< 0.1			30 to 60	C (0.3 to ≤0.6)
N#Cc1nccnc1-c1c(-c2cccc(-c3cc(F)c(C(=O)O)cc3Cl)c2)n(S(=O)(=O)c2ccc(C(F)F)cc2)c2ccc(F)cc12 [11/11]		< 30	< 0.1	C (0.3 to ≤0.6)			
N#Cc1cccc(C#N)c1-c1c(-c2cccc(-c3ccc(C(=O)O)cc3Cl)c2)n(S(=O)(=O)c2ccc(C(F)F)cc2)c2ccc(F)cc12 [11/12]		< 30	< 0.1	C (0.3 to ≤0.6)			
O=C(O)c1ccc(-c2cccc(-c3c(-c4c(Cl)cccc4Cl)c4cc(F)ccc4n3S(=O)(=O)c3ccc(C(F)F)cc3)c2)c(Cl)c1 [11/13]		< 30	< 0.1	C (0.3 to ≤0.6)			
N#Cc1sccc1-c1c(-c2cccc(-c3ccc(C(=O)O)cc3Cl)c2)n(S(=O)(=O)c2ccc(C(F)(F)F)nc2)c2ccc(F)cc12 [11/16]	B (0.6 to ≤0.9)	30 to 60	< 0.1	A (>0.9)			
N#Cc1sccc1-c1c(-c2cccc(-c3ccc(C(=O)O)cc3Cl)c2)n(S(=O)(=O)c2ccc(C(F)F)cc2)c2ccc(F)cc12 [11/17]		< 30	< 0.1	C (0.3 to ≤0.6)			
